# Measurements published in patent EP3120851A1, “4-AMINO-6-(2,6-DICHLOROPHENYL)-8-METHYL-2-(PHENYLAMINO)-PYRIDO[2,3-D]PYRIMIDIN-7(8H)-ONE FOR TREATMENT OF SOLID CANCERS” (Pangaea Biotech S.L., priority 2015, dated 2017).
# Key:
# Test in all cases: radiometric protein kinase assay (33PanQinase Activity Assay)
# Type in all cases: biochemical
# Conditions in all cases: singlicate, read-out: residual activity
# EGF-R G719C = target: T1, EGF-R G719C (Homo sapiens, UniProt P00533, G719C)
# T1 construct: GST or His (not specified per kinase); purchased ProQinase (panel service); host or cells: Sf9 insect cells or E. coli
# Protocol: (§1) In a first experiment, the kinase inhibition profile of the compound of formula (1) was evaluated at Proqinase (http://www.proqinase.com) by measuring residual activity values at a concentration of 10 µM of the test compound in singlicate in front of the following kinases: ABL2, EPHA3, CSF1-R, DDR2 wt, DDR2 N456 S, EGF-R d746-750, EGF-R d747-752/P753S, EGF-R G719C, EGF-R G719S, EGF-R L858R, EGF-R L861Q, EGF-R wt, EPHA1, EPHA2, EPHB1, ERBB4, LCK, MINK1, RAF1 Y340D/Y341D (untagged), RIPK2, STK17A. In a second experiment, the kinase inhibition profile of the compound of formula (1) was evaluated at Proqinase (http://www.proqinase.com) by measuring residual activity values at a concentration of 0.5 and 10 µM of the test compound in singlicate in front of a panel of 300 kinases using the following protocol:
# (§2) The compounds were dissolved to 1 x 10^-03 M stock solutions in 100% DMSO. Subsequently, 100 µl of each stock solution were transferred into wells A3-F12 of a microtiter plate ("master plate"). Wells A1-F2 were filled with 100 µl 100% DMSO as controls. 5 x 10 µl of the master plate were aliquoted into 5 copy plates, which were stored at -20° Celsius until use. For the testing of each group of up to 8 kinases, one copy plate was used.
# (§3) In the process, 90 µl H2O were added to each well of a copy plate. To minimize precipitation, the H2O was added to each well only a few minutes before the transfer of the compound solutions into the assay plates. The plate was shaken thoroughly, resulting in a "compound dilution plate" with a compound concentration of 1 x 10^-04 M/10 % DMSO. This plate was used for the transfer of 5 µl compound solution into the assay plates. The final volume of the assay was 50 µl. All compounds were tested at 1 x 10^-05 M in singlicate. The final DMSO concentration in the reaction cocktails was 1 % in all cases. The compound dilution plates were disposed at the end of each working day.
# (§4) A radiometric protein kinase assay (^33PanQinase® Activity Assay) was used for measuring the kinase activity of the corresponding protein kinases. All kinase assays were performed in 96-well FlashPlatesTM from Perkin Elmer (Boston, MA, USA) in a 50 µl reaction volume. The reaction cocktail was pipetted in 4 steps in the following order: • 10 µl of non-radioactive ATP solution (in H2O) • 25 µl of assay buffer/ [γ-33P]-ATP mixture • 5 µl of test sample in 10% DMSO • 10 µl of enzyme/substrate mixture
# (§5) The protein kinase reaction cocktails were incubated at 30°C for 60 minutes. The reaction was stopped with 50 µl of 2 % (v/v) H3PO4, plates were aspirated and washed two times with 200 µl 0.9 % (w/v) NaCl. All assays were performed with a BeckmanCoulter Biomek 2000/SL robotic system. Incorporation of ^33Pi (counting of "cpm") was determined with a microplate scintillation counter (Microbeta, Wallac).
# (§6) All protein kinase assays were performed with a BeckmanCoulter Core robotic system.
# (§7) All protein kinases provided by ProQinase were expressed in Sf9 insect cells or in E.coli as recombinant GST-fusion proteins or His-tagged proteins. All kinases were produced from human cDNAs and purified by either GSH-affinity chromatography or immobilized metal. Affinity tags were removed from a number of kinases during purification. The purity of the protein kinases was examined by SDS-PAGE/Coomassie staining, the identity was checked by mass spectroscopy.
# (§8) Kinases from external vendors (CAR = Carna Biosciences Inc.; INV = Life Technologies (Invitrogen Corporation); MIL = Merck-Millipore (Millipore Corporation)) were expressed, purified and quality-controlled by virtue of the vendors readings.
# (§9) For each kinase, the median value of the cpm of six wells of column 1 of each assay plate was defined as "low control" (n=6). This value reflects unspecific binding of radioactivity to the plate in the absence of a protein kinase but in the presence of the substrate. […]
# DDR2 N456S = target: T2, DDR2 N456S (Homo sapiens, UniProt Q16832, N456S)
# T2 construct: GST or His (not specified per kinase); purchased ProQinase (panel service); host or cells: Sf9 insect cells or E. coli
# Protocol: as §1, §2, §3, §4, §5, §6, §7, §8, §9
# EGF-R d746-750 = target: T3, EGF-R d746-750 (Homo sapiens, UniProt P00533, DEL746-750)
# T3 construct: GST or His (not specified per kinase); purchased ProQinase (panel service); host or cells: Sf9 insect cells or E. coli
# Protocol: as §1, §2, §3, §4, §5, §6, §7, §8, §9
# EGF-R L861Q = target: T4, EGF-R L861Q (Homo sapiens, UniProt P00533, L861Q)
# T4 construct: GST or His (not specified per kinase); purchased ProQinase (panel service); host or cells: Sf9 insect cells or E. coli
# Protocol: as §1, §2, §3, §4, §5, §6, §7, §8, §9
# DDR2 wt = target: T5, DDR2 wt (Homo sapiens, UniProt Q16832)
# T5 construct: GST or His (not specified per kinase); purchased ProQinase (panel service); host or cells: Sf9 insect cells or E. coli
# Protocol: as §1, §2, §3, §4, §5, §6, §7, §8, §9
# EPHA3 = target: T6, EPHA3 (Homo sapiens, UniProt P29320)
# T6 construct: GST or His (not specified per kinase); purchased ProQinase (panel service); host or cells: Sf9 insect cells or E. coli
# Protocol: as §1, §2, §3, §4, §5, §6, §7, §8, §9
# EGF-R d747-752/P753S = target: T7, EGF-R d747-752/P753S (Homo sapiens, UniProt P00533, DEL747-752/P753S)
# T7 construct: GST or His (not specified per kinase); purchased ProQinase (panel service); host or cells: Sf9 insect cells or E. coli
# Protocol: as §1, §2, §3, §4, §5, §6, §7, §8, §9
# ERBB4 = target: T8, ERBB4 (Homo sapiens, UniProt Q15303)
# T8 construct: GST or His (not specified per kinase); purchased ProQinase (panel service); host or cells: Sf9 insect cells or E. coli
# Protocol: as §1, §2, §3, §4, §5, §6, §7, §8, §9
# LCK = target: T9, LCK (Homo sapiens, UniProt P06239)
# T9 construct: GST or His (not specified per kinase); purchased ProQinase (panel service); host or cells: Sf9 insect cells or E. coli
# Protocol: as §1, §2, §3, §4, §5, §6, §7, §8, §9
# EPHA1 = target: T10, EPHA1 (Homo sapiens, UniProt P21709)
# T10 construct: GST or His (not specified per kinase); purchased ProQinase (panel service); host or cells: Sf9 insect cells or E. coli
# Protocol: as §1, §2, §3, §4, §5, §6, §7, §8, §9
# EGF-R L858R = target: T11, EGF-R L858R (Homo sapiens, UniProt P00533, L858R)
# T11 construct: GST or His (not specified per kinase); purchased ProQinase (panel service); host or cells: Sf9 insect cells or E. coli
# Protocol: as §1, §2, §3, §4, §5, §6, §7, §8, §9
# EPHA2 = target: T12, EPHA2 (Homo sapiens, UniProt P29317)
# T12 construct: GST or His (not specified per kinase); purchased ProQinase (panel service); host or cells: Sf9 insect cells or E. coli
# Protocol: as §1, §2, §3, §4, §5, §6, §7, §8, §9
# EGF-R G719S = target: T13, EGF-R G719S (Homo sapiens, UniProt P00533, G719S)
# T13 construct: GST or His (not specified per kinase); purchased ProQinase (panel service); host or cells: Sf9 insect cells or E. coli
# Protocol: as §1, §2, §3, §4, §5, §6, §7, §8, §9
# EPHB1 = target: T14, EPHB1 (Homo sapiens, UniProt P54762)
# T14 construct: GST or His (not specified per kinase); purchased ProQinase (panel service); host or cells: Sf9 insect cells or E. coli
# Protocol: as §1, §2, §3, §4, §5, §6, §7, §8, §9
# T7 sequence (P00533 with tags, fused parts or gaps DEL747-752/P753S limits assumed): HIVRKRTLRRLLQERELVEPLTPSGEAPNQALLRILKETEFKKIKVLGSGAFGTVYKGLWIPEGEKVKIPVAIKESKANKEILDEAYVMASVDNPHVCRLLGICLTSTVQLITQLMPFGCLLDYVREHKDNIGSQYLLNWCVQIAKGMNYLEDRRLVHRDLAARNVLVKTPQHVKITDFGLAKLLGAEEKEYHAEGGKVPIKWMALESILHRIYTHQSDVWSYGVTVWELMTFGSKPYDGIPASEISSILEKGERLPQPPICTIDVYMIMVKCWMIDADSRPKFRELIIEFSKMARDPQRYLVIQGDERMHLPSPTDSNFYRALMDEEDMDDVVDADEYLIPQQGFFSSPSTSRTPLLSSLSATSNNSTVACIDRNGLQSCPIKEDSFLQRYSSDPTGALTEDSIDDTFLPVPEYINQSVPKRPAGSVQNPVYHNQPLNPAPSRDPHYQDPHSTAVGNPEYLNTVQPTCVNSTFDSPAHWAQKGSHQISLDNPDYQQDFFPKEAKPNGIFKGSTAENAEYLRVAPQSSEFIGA
# T4 sequence (P00533 25-1210 L861Q): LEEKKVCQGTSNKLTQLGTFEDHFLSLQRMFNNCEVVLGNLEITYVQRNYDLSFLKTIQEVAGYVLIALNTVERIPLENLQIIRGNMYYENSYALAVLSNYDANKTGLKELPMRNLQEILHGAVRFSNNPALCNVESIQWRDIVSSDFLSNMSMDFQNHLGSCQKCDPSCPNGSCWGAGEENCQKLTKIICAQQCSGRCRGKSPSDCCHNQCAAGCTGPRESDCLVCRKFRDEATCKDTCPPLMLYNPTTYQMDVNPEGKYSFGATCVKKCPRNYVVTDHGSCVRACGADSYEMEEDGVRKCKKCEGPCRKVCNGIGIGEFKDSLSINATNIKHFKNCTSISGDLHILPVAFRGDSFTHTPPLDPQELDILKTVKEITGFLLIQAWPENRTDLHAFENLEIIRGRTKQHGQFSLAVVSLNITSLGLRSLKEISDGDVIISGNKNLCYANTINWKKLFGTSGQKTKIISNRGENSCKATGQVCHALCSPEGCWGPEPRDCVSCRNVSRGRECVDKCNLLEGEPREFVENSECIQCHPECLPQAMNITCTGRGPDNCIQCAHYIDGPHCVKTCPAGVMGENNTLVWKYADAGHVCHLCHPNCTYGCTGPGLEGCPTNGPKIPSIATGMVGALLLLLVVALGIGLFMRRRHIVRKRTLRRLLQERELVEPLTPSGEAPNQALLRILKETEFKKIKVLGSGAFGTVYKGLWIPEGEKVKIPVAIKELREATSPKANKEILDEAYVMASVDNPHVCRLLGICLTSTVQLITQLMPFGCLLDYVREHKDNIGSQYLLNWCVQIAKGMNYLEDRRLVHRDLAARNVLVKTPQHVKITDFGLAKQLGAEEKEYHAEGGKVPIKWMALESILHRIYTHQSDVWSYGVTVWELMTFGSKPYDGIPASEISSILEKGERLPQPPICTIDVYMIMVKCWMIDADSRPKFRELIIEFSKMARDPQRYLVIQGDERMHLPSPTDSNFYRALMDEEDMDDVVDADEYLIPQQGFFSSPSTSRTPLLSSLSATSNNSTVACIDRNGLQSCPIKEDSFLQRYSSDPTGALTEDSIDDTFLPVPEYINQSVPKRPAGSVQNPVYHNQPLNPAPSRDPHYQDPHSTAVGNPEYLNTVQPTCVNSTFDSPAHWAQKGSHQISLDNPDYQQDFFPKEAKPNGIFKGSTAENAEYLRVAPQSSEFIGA
# T9 sequence (P06239 whole entry): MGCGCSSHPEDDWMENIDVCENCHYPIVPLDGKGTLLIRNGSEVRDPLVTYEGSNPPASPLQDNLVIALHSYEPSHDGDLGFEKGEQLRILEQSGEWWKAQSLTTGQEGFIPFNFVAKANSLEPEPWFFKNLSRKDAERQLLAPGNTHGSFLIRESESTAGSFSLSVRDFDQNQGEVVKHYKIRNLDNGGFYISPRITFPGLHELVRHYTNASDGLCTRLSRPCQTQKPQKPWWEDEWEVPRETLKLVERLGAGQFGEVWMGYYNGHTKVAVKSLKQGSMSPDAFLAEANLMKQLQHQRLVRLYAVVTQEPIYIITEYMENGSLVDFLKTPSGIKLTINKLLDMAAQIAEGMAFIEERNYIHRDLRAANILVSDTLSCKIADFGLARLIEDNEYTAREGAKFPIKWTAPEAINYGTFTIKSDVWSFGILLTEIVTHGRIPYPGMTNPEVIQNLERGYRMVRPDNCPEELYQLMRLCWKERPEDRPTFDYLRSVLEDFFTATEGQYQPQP
# T12 sequence (P29317 24-976): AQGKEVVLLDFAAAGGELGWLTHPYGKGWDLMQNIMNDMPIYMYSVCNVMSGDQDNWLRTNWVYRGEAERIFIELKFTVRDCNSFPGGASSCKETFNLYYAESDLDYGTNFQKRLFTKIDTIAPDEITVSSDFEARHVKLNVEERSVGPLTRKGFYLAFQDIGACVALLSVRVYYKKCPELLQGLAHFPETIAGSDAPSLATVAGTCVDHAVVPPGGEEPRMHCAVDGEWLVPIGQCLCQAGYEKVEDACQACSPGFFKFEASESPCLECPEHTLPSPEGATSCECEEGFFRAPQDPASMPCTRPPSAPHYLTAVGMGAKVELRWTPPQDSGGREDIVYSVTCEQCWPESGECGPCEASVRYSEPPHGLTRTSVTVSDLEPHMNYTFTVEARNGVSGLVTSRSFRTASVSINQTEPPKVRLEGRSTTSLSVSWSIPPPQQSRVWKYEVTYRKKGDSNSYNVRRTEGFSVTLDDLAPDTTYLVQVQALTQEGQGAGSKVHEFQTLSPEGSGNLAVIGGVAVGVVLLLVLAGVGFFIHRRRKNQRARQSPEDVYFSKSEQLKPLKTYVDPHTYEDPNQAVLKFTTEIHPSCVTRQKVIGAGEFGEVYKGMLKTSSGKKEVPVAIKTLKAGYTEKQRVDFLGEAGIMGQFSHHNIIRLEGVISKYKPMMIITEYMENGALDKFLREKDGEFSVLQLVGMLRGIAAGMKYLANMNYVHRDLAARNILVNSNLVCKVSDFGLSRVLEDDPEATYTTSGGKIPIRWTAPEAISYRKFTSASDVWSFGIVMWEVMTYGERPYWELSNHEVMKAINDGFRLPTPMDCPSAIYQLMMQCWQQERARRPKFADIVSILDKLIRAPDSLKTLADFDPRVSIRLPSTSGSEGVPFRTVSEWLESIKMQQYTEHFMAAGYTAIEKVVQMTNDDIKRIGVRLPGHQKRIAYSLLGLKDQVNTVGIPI
# T3 sequence (P00533 with tags, fused parts or gaps DEL746-750 limits assumed): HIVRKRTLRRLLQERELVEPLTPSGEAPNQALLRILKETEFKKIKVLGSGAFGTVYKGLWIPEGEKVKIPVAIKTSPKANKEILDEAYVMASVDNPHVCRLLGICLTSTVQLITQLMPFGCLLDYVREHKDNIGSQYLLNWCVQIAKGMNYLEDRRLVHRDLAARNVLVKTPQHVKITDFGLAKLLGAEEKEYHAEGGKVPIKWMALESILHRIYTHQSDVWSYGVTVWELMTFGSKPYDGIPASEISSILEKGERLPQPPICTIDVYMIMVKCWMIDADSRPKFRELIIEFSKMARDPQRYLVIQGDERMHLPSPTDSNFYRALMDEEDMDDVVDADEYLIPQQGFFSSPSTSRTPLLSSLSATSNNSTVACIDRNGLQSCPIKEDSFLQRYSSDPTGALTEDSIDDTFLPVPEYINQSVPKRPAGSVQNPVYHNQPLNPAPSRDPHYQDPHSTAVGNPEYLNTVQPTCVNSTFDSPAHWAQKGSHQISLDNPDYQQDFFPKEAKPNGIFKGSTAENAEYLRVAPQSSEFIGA
# T11 sequence (P00533 25-1210 L858R): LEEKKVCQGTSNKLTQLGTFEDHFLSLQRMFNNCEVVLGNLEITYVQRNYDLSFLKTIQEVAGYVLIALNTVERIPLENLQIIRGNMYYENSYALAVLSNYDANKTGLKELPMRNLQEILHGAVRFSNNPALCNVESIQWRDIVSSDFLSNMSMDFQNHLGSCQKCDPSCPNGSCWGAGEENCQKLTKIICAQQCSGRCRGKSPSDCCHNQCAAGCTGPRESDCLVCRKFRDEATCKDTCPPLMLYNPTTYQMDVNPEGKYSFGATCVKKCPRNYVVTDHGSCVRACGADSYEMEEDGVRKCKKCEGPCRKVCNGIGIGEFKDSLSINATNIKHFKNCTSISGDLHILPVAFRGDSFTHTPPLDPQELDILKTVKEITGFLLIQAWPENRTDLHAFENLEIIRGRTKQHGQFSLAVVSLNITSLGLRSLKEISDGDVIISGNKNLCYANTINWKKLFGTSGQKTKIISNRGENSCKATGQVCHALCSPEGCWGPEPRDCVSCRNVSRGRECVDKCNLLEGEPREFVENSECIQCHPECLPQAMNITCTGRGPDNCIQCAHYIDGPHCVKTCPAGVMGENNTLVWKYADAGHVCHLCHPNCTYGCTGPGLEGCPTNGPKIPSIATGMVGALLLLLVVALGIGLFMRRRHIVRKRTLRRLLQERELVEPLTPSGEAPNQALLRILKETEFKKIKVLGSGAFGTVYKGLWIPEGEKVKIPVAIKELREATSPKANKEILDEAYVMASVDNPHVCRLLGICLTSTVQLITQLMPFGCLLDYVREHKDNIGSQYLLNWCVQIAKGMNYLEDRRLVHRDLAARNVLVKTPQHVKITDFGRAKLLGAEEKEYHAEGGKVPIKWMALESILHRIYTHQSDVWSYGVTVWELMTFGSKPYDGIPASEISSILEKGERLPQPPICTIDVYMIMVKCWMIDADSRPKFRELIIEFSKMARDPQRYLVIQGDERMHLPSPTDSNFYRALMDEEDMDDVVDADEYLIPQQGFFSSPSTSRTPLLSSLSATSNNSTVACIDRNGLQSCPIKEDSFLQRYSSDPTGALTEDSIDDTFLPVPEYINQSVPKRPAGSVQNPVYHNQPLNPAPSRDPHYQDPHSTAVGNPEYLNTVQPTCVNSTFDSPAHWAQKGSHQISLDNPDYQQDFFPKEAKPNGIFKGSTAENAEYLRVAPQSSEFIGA
structure (smiles),measurement,setting,value
"Cn1c(=O)c(-c2c(Cl)cccc2Cl)cc2c(N)nc(Nc3ccccc3)nc21 [Compound (1), 4-amino-6-(2,6-dichlorophenyl)-8-methyl-2-(phenylamino)-pyrido[2,3-d]pyrimidin-7(8H)-one]",remaining activity at 0.5 µM,EGF-R G719C; 0.5 µM test compound,29%
same,remaining activity at 10 µM,EGF-R G719C; 10 µM test compound,6%
same,remaining activity at 0.5 µM,DDR2 N456S; 0.5 µM test compound,10%
same,remaining activity at 10 µM,DDR2 N456S; 10 µM test compound,6%
same,remaining activity at 0.5 µM,EGF-R d746-750; 0.5 µM test compound,28%
same,remaining activity at 10 µM,EGF-R d746-750; 10 µM test compound,10%
same,remaining activity at 0.5 µM,EGF-R L861Q; 0.5 µM test compound,36%
same,remaining activity at 10 µM,EGF-R L861Q; 10 µM test compound,8%
same,remaining activity at 0.5 µM,DDR2 wt; 0.5 µM test compound,10%
same,remaining activity at 10 µM,DDR2 wt; 10 µM test compound,4%
same,remaining activity at 0.5 µM,EPHA3; 0.5 µM test compound,9%
same,remaining activity at 10 µM,EPHA3; 10 µM test compound,36%
same,remaining activity at 0.5 µM,EGF-R d747-752/P753S; 0.5 µM test compound,47%
same,remaining activity at 10 µM,EGF-R d747-752/P753S; 10 µM test compound,15%
same,remaining activity at 0.5 µM,ERBB4; 0.5 µM test compound,52%
same,remaining activity at 10 µM,ERBB4; 10 µM test compound,7%
same,remaining activity at 0.5 µM,LCK; 0.5 µM test compound,50%
same,remaining activity at 10 µM,LCK; 10 µM test compound,5%
same,remaining activity at 0.5 µM,EPHA1; 0.5 µM test compound,54%
same,remaining activity at 10 µM,EPHA1; 10 µM test compound,13%
same,remaining activity at 0.5 µM,EGF-R L858R; 0.5 µM test compound,49%
same,remaining activity at 10 µM,EGF-R L858R; 10 µM test compound,10%
same,remaining activity at 0.5 µM,EPHA2; 0.5 µM test compound,54%
same,remaining activity at 10 µM,EPHA2; 10 µM test compound,9%
same,remaining activity at 0.5 µM,EGF-R G719S; 0.5 µM test compound,39%
same,remaining activity at 10 µM,EGF-R G719S; 10 µM test compound,3%
same,remaining activity at 0.5 µM,EPHB1; 0.5 µM test compound,57%
same,remaining activity at 10 µM,EPHB1; 10 µM test compound,5%
